# Columns and labels:
# [1] = tested on: transplanted tumor of HL60 cells; test: HL-60 transplanted tumor in nude mice; conditions: for Tumor Volume (mm3) (d30): d 30
# Procedure: HL-60 cells in a logarithmic growth phase were taken and subjected to a trypan blue exclusion experiment showing that the cell viability was more than 95%, then the cells were subjected to trypsinization, centrifugation, and supernatant removal. Then cell concentration was adjusted to 1×10^7/ml with matrigel, then each nude mouse was inoculated subcutaneously with 0.2 ml of cells at its right armpit and recorded as the first day of inoculation. When the tumor grows to be greater than or equal to 100 mm^3, the mice were randomly divided into 11 groups with 6 mice in each group: isovaleryl spiramycin I groups with doses of 25, 50 and 100 mg/kg, isovaleryl spiramycin II groups with doses of 25, 50 and 100 mg/kg, and isovaleryl spiramycin III groups with doses of 25, 50 and 100 mg/kg. Each group was continuously administered intragastrically for 30 days with a dose of 20 ml/kg. The mice were sacrificed the next day after drug withdrawal and the indicators were tested. The long diameter and short diameter of the tumor, and the weight of each mouse were recorded every 3 days from drug administration to nude mouse sacrifice.
# The body weight of the nude mice and the long diameter (a) and short diameter (b) of the transplanted tumor were measured every 3 days, and the tumor volume (v), relative tumor volume (RTV) and relative tumor proliferation rate (T/C) are calculated respectively according to the following formulas, wherein V=a×b^2/2; RTV=V/V0 (V0 is the tumor volume before administration, V is the tumor volume before sacrifice), and T/C (%)=treatment group RTV/model control group RTV×100%.
# Each mouse was weighed and sacrificed. After the tumor was completely stripped off from the body of the mouse, the non-tumor tissues such as blood stains and fat were removed to weigh the tumor and calculate the tumor growth inhibition rate. The average tumor weight of each group of mice is used as an indicator of efficacy. Tumor growth inhibition rate (%)=(1−the average tumor weight of the treatment group/the average tumor weight of the model group)×100%.
# [2] = tested on: transplanted tumor of mouse Lewis lung cancer; test: Transplanted tumor of mouse Lewis lung cancer; conditions: for Tumor Volume (mm3) (d 1) / Tumor Volume (mm3) (d30) / Relative Tumor Proliferation Rate (T/C) / Relative Tumor Volume (RTV): title prints KM mouse H22 cells; for Tumor Volume (mm3) (d30): d 30; for Body Weight (g) (d1) / Body Weight (g) (d 15): mouse, in vivo
# Procedure: Lewis lung cancer cells were cultured in a RPMI 1640 culture medium containing 10% fetal bovine serum at 37° C. in a 5% CO2 incubator. The cells in the logarithmic growth phase were subjected to trypsinization with 0.25% trypsin, then the cells were collected to be centrifugated to remove the obtained supernatant, then were washed twice with sterile normal saline. […] The Lewis cells were adjusted to 1×10^7/mL in concentration and stored in ice water. 75% ethanol was used to disinfect the skin under the right armpits of the mice, and each C57BL/6 mouse was soon inoculated subcutaneously with 0.2 ml of the cells at its right armpit.
# In the Lewis lung cancer model, the mice inoculated with the tumor were randomly divided into groups with 10 mice in each group the next day of inoculation. The groups included: a model control group, a positive drug cyclophosphamide control group (CTX, 30 mg/kg), isovaleryl spiramycin I groups with doses of 13, 26 and 52 mg/kg; isovaleryl spiramycin II groups with doses of 13, 26 and 52 mg/kg; isovaleryl spiramycin III groups with doses of 13, 26 and 52 mg/kg. Each group was continuously administered intragastrically for 15 days with a dose of 20 ml/kg.
# The tumor-bearing mice were weighed and sacrificed the next day after the last administration. The subcutaneous tumors were dissected and weighed. The average tumor weight of each group is calculated, and the tumor inhibition rate is calculated.
# Tumor inhibition rate=(1−T/C)×100%
# T: average tumor weight of the drug-administered group; C: average tumor weight of the blank control group.
# [3] = tested on: human renal cell adenocarcinoma cell 769-P; conditions: MTT, 48 hours
# Procedure: The purpose of the assay is to evaluate the in vitro cell proliferation inhibition or cytotoxic activity of a tested sample.
# MCF-7, MDA-MB-231, HepG2, A549, H460, H1299, 786-0, 769-P, U251, A172, HeLa, PC3, PANC-1, TE-1, SGC7901, and HT-29 were adherent tumor cells. The adherent tumor cells in the logarithmic growth phase were selected and digested with trypsin, then were prepared into a 4 to 5×10^4/ml cell suspension by a medium containing 10% fetal bovine serum. And the cell suspension was inoculated in a 96-well culture plate, and each well was 100 μL. The 96-well culture plate was cultured at 37° C. and 5% CO2 for 24 hours. The experimental group was replaced with a new culture medium containing different concentrations of the sample to be tested, namely, isovaleryl spiramycin I, isovaleryl spiramycin II, or isovaleryl spiramycin III, while the control group was replaced with a culture medium containing the same volume of solvent. Each group was set up with 3 parallel wells that were cultured at 37° C. and 5% CO2 for 48 hours. After the supernatant was removed, the wells were washed carefully for 3 times with PBS. And 100 μL of freshly prepared culture medium containing 0.5 mg/ml MTT was added to each well for continuous incubation for 4 hours at 37° C. After the supernatant was removed carefully, 150 μL of DMSO was added to each well, and after the material was mixed for 10 minutes with a micro-oscillator, the optical density value was measured at 492 nm with a microplate reader.
# The inhibition rate of the medicament on tumor cell growth is calculated according to the following formula:
# Tumor cell growth inhibition rate (%)=[A492 (negative control)−A492 (dosing group)]/A492 (negative control)×100%
# And the half-inhibitory concentration (IC50) of the sample is determined therefrom.
# [4] = HL-60, high dose (100 mg/kg in method) i.g. 30 days
# [5] = HL-60, low dose (25 mg/kg in method) i.g. 30 days
# [6] = HL-60, medium dose (50 mg/kg in method) i.g. 30 days
compound,measurement,setting,value
"CO[C@@H]1[C@@H](O[C@@H]2O[C@H](C)[C@@H](O[C@H]3C[C@@](C)(O)[C@@H](OC(=O)CC(C)C)[C@H](C)O3)[C@H](N(C)C)[C@H]2O)[C@@H](CC=O)C[C@@H](C)[C@@H](O[C@H]2CC[C@H](N(C)C)[C@@H](C)O2)/C=C/C=C/C[C@@H](C)OC(=O)C[C@H]1O [Isovaleryl spiramycin I, isovaleryl spiramycin I]",Relative Tumor Proliferation Rate (T/C),[1]; [4],32.70%
same,tumor growth inhibition rate,[1]; [4],64.19%
same,Relative Tumor Proliferation Rate (T/C),[1]; [5],84.96%
same,tumor growth inhibition rate,[1]; [5],11.57%
same,tumor volume and relative tumor volume compared with the model group,"[1]; HL-60, low, medium and high doses, P<0.05",significantly lower
same,Relative Tumor Proliferation Rate (T/C),[1]; [6],59.54%
same,tumor growth inhibition rate,[1]; [6],34.78%
same,Inhibition Rate (%),[1]; dose 25 mg/kg,11.57%
same,Relative Tumor Proliferation Rate (T/C),[1]; dose 25 mg/kg,84.96%
same,Relative Tumor Volume (RTV),[1]; dose 25 mg/kg,9.56 ± 2.41
same,Tumor Weight,[1]; dose 25 mg/kg,2.00 ± 0.34 g
same,Tumor Volume (mm3) (d 1),[1]; dose 25 mg/kg,182.56 ± 25.80 mm3
same,Tumor Volume (mm3) (d30),[1]; dose 25 mg/kg,1702.01 ± 305.75 mm3
same,Inhibition Rate (%),[1]; dose 50 mg/kg,34.78%
same,Relative Tumor Proliferation Rate (T/C),[1]; dose 50 mg/kg,59.54%
same,Relative Tumor Volume (RTV),[1]; dose 50 mg/kg,6.70 ± 2.58
same,Tumor Weight,[1]; dose 50 mg/kg,1.48 ± 0.38 g
same,Tumor Volume (mm3) (d 1),[1]; dose 50 mg/kg,189.04 ± 24.48 mm3
same,Tumor Volume (mm3) (d30),[1]; dose 50 mg/kg,1230.70 ± 332.94 mm3
same,Inhibition Rate (%),[1]; dose 100 mg/kg,64.19%
same,Relative Tumor Proliferation Rate (T/C),[1]; dose 100 mg/kg,32.70%
same,Relative Tumor Volume (RTV),[1]; dose 100 mg/kg,3.68 ± 2.51
same,Tumor Weight,[1]; dose 100 mg/kg,0.81 ± 0.42 g
same,Tumor Volume (mm3) (d 1),[1]; dose 100 mg/kg,183.82 ± 20.41 mm3
same,Tumor Volume (mm3) (d30),[1]; dose 100 mg/kg,657.95 ± 411.53 mm3
same,mouse weight compared with the model group,"[1]; mouse, in vivo",no significant changes
same,Body Weight (g) (d1),"[1]; mouse, in vivo, 25 mg/kg",20.75 ± 1.20 g
same,Body Weight (g) (d30),"[1]; mouse, in vivo, 25 mg/kg",20.66 ± 1.08 g
same,Body Weight (g) (d1),"[1]; mouse, in vivo, 50 mg/kg",20.4 ± 1.60 g
same,Body Weight (g) (d30),"[1]; mouse, in vivo, 50 mg/kg",20.35 ± 1.20 g
same,Body Weight (g) (d1),"[1]; mouse, in vivo, 100 mg/kg",20.63 ± 1.33 g
same,Body Weight (g) (d30),"[1]; mouse, in vivo, 100 mg/kg",20.56 ± 1.77 g
same,growth of Lewis lung cancer in mice,"[2]; 13, 26 and 52 mg/kg i.g. 15 days",significantly inhibit
same,Tumor Volume (mm3) (d 1),[2]; dose 12.5 mg/kg,104.68 ± 20.89 mm3
same,Tumor Volume (mm3) (d30),[2]; dose 12.5 mg/kg,955.73 ± 330.24 mm3
same,Relative Tumor Proliferation Rate (T/C),[2]; dose 12.5 mg/kg,57.56
same,Relative Tumor Volume (RTV),[2]; dose 12.5 mg/kg,9.22 ± 2.95
same,Inhibition Rate (%),[2]; dose 13 mg/kg,46.94%
same,Tumor Weight,[2]; dose 13 mg/kg,0.85 ± 0.24 g
same,Tumor Volume (mm3) (d 1),[2]; dose 25 mg/kg,104.31 ± 19.76 mm3
same,Tumor Volume (mm3) (d30),[2]; dose 25 mg/kg,756.20 ± 145.84 mm3
same,Relative Tumor Proliferation Rate (T/C),[2]; dose 25 mg/kg,45.51
same,Relative Tumor Volume (RTV),[2]; dose 25 mg/kg,7.29 ± 0.82
same,Inhibition Rate (%),[2]; dose 26 mg/kg,62.97%
same,Tumor Weight,[2]; dose 26 mg/kg,0.59 ± 0.06 g
same,Tumor Volume (mm3) (d 1),[2]; dose 50 mg/kg,103.79 ± 19.55 mm3
same,Tumor Volume (mm3) (d30),[2]; dose 50 mg/kg,465.26 ± 52.94 mm3
same,Relative Tumor Proliferation Rate (T/C),[2]; dose 50 mg/kg,29.05
same,Relative Tumor Volume (RTV),[2]; dose 50 mg/kg,4.65 ± 1.27
same,Inhibition Rate (%),[2]; dose 52 mg/kg,71.83%
same,Tumor Weight,[2]; dose 52 mg/kg,0.45 ± 0.14 g
same,Body Weight (g) (d1),[2]; 13 mg/kg,19.93 ± 1.20 g
same,Body Weight (g) (d 15),[2]; 13 mg/kg,22.70 ± 0.87 g
same,Body Weight (g) (d1),[2]; 26 mg/kg,19.45 ± 0.68 g
same,Body Weight (g) (d 15),[2]; 26 mg/kg,23.43 ± 1.41 g
same,Body Weight (g) (d1),[2]; 52 mg/kg,19.87 ± 1.17 g
same,Body Weight (g) (d 15),[2]; 52 mg/kg,23.25 ± 0.43 g
same,IC50,[3],5.09 ± 0.04 µg/mL

# Reference: patent US20200163984A1, “USE OF ISOVALERYL SPIRAMYCIN I, II AND/OR III IN MANUFACTURING MEDICAMENT FOR TREATING AND/OR PREVENTING TUMOR, AND MEDICAMENT” (SHENYANG FUYANG PHARMACEUTICAL TECHNOLOGY CO., LTD., priority 2017, published 2020)
